1 compound from ChEMBL document CHEMBL4422633, “Antioxidant-Inspired Drug Discovery: Antitumor Metabolite Is Formed in Situ from a Hydroxycinnamic Acid Derivative upon Free-Radical Scavenging” (J Med Chem, 2019) can be followed below.

Structures are written as SMILES.

What is called IC50 is the concentration at which inhibition is half-maximal.

Series [1] is described as follows: Cytotoxicity against human NCI-H460/R cells transfected with MDR assessed as reduction in cell viability after 72 hrs by MTT assay. The class given is functional, cell-based. As to conditions: NCI-H460, 72 h. A general note: Formazan colour is commonly taken as a measure of viable cells.
In series [2] the test system is HaCaT. Kind of series: Induction of apoptosis in human HaCaT cells assessed as necrotic cells at 40 nM after 24 hrs by Annexin V/propidium iodide-staining based flow cytometry (reference value: 1.88 +/- 0.02%). As to conditions: 0.04 µM. It counts as cell-based. A general note: Flow cytometry measures light scatter and fluorescence of single cells or particles in a stream.

A short description of series [3]: Cytotoxicity against mouse L5178B1 cells transfected with pHa MDR1/A retrovirus assessed as reduction in cell viability after 72 hrs by MTT assay. The class given is functional, cell-based. As to conditions: MDR1, 72 h.
Series [4] concerns NCI-H460. Kind of series: Induction of apoptosis in human NCI-H460 cells assessed as viable cells at 40 nM after 24 hrs by Annexin V/propidium iodide-staining based flow cytometry (reference value: 96.49 +/- 0.96%). It counts as functional. As to conditions: NCI-H460, 24 h, read-out: Activity.
A further series concerns SiHa. Kind of series: Cytotoxicity against human SiHa cells assessed as reduction in cell viability after 72 hrs by MTT assay. The class given is functional, cell-based.
Series [5] has as its system NCI-H460. Nature of the series: Induction of apoptosis in human NCI-H460 cells assessed as necrotic cells at 40 nM after 24 hrs by Annexin V/propidium iodide-staining based flow cytometry (reference value: 2.13 +/- 0.02%). It counts as functional.
Series [6] in a line: Induction of apoptosis in human HaCaT cells assessed as viable cells at 40 nM after 24 hrs by Annexin V/propidium iodide-staining based flow cytometry (reference value: 95.63 +/- 3.83%). It counts as cell-based. As to conditions: read-out: Activity.
The next series relates to NCI-H661. Nature of the series: Cytotoxicity against human NCI-H661 cells assessed as reduction in cell viability after 72 hrs by MTT assay. The class given is functional, cell-based. As to conditions: NCI-H661, 72 h.
In series [7] the test system is NCI-H460. Nature of the series: Induction of apoptosis in human NCI-H460 cells assessed as early apoptotic cells at 40 nM after 24 hrs by Annexin V/propidium iodide-staining based flow cytometry (reference value: 0.45 +/- 0.01%). The class given is functional.
Series [8] has as its system HaCaT. Nature of the series: Cytotoxicity against human HaCaT cells assessed as reduction in cell viability after 72 hrs by MTT assay. The class given is cell-based.
Series [9] can be described thus: Cytotoxicity against mouse L5178 cells assessed as reduction in cell viability after 72 hrs by MTT assay. As to conditions: L5178, 72 h. It counts as functional, cell-based.
Series [10] concerns HaCaT. Nature of the series: Induction of apoptosis in human HaCaT cells assessed as early apoptotic cells at 40 nM after 24 hrs by Annexin V/propidium iodide-staining based flow cytometry (reference value: 0.23 +/- 0.01%). It counts as cell-based. As to conditions: 0.04 µM.
Series [11] concerns HaCaT. Kind of series: Induction of apoptosis in human HaCaT cells assessed as late apoptotic cells at 40 nM after 24 hrs by Annexin V/propidium iodide-staining based flow cytometry (reference value: 0.93 +/- 0.04%). It counts as cell-based. As to conditions: 0.04 µM.
Series [12] concerns NCI-H460. Kind of series: Induction of apoptosis in human NCI-H460 cells assessed as late apoptotic cells at 40 nM after 24 hrs by Annexin V/propidium iodide-staining based flow cytometry (reference value: 0.93 +/- 0.04%). It counts as functional.
The next series deals with A549. Kind of series: Cytotoxicity against human A549 cells assessed as reduction in cell viability after 72 hrs by MTT assay. It counts as functional, cell-based. As to conditions: A549, 72 h.
For series [13], the system named is NCI-H460. Kind of series: Cytotoxicity against human NCI-H460 cells assessed as reduction in cell viability after 72 hrs by MTT assay. The class given is functional, cell-based. As to conditions: NCI-H460, 72 h.

Consider `COc1cccc2c1C(=O)c1c(O)c3c(c(O)c1C2=O)C[C@@](O)(C(=O)CO)C[C@@H]3O[C@H]1C[C@H](N)[C@H](O)[C@H](C)O1` [DOXORUBICIN], for which the 50% inhibitory concentration (IC50) in series [1] was 1890 nM; in [3] it was 11800 nM; with SiHa, 760 nM; in the series with NCI-H661, 350 nM; with HaCaT [8], 30 nM; in series [9] it was 410 nM. For the same compound, the half-inhibitory concentration (IC50) is 550 nM with A549 and 40 nM in the series with NCI-H460 [13]. The Activity was found to be 7.82% in the series with HaCaT [2]; 6.7% with NCI-H460 [5]; 4.05% with NCI-H460 [7]; 11.03% with HaCaT [10]; 3.04% with HaCaT [11]; 4.11% in the series with NCI-H460 [12]. Also, in the series with NCI-H460 [4], the viability at 0.04 µM worked out at 85.1%. For the same compound, in series [6], the viability at 24 h, 0.04 µM was determined as 78.1%.
